The results in this text go back to publication PMC6115460, “Extreme amyloid polymorphism in Staphylococcus aureus virulent PSMα peptides” (Nature Communications, 2018).

The test system of one data set is Staphylococcus hominis. The data set can be described thus: Disc diffusion assay testing antibacterial activity. The data set is classed as cell-based. Particulars: ATTC 27844, peptide 50 mg ml−1 in ultra-pure water (LFKFFK, KLFKFFK) or DMSO (IIKVIK, IIKIIK) loaded on discs, BHI-agar, incubated over-night, coincides with activity in solution (Supplementary Fig. 4). As to the method:
(§1) Micrococcus luteus (an environmental isolate) was a kind gift from Prof. Charles Greenblatt from the Hebrew university in Jerusalem, Israel. An inoculum was grown in Luria-Bertani (LB) medium at 30 °C with 220 rpm shaking overnight. Staphylococcus hominis (ATTC 27844) and Staphylococcus aureus (ATCC 25923) were purchased from ATCC, USA. An inoculum was grown in brain-heart infusion (BHI) media at 37 °C with 220 rpm shaking overnight.
(§2) Bacterial cultures were grown overnight as described above and diluted 1000-fold to a fresh media until growth reached to optical density of ~0.4 measured at 600 nm (OD600). The refreshed cultures were plated on LB-agar or BHI-agar according to the bacterial strain. The antibacterial activity of PSMα segments was examined: Lyophilized peptides were dissolved in ultra-pure water (LFKFFK and KLFKFFK) or DMSO (IIKVIK and IIKIIK) to a final concentration of 50 mg ml^−1. The concentrated peptide solutions were loaded on blank antimicrobial susceptibility discs (Oxoid, UK). Discs loaded with ultra-pure water or DMSO were used as controls. The discs were gently placed on bacteria plated agar and incubated over-night at the appropriate temperatures.

The next data set has as its system Micrococcus luteus. The description is as above. The data set is classed as cell-based. Conditions: peptide 50 mg ml−1 in ultra-pure water (LFKFFK, KLFKFFK) or DMSO (IIKVIK, IIKIIK) loaded on discs, LB-agar, incubated over-night, coincides with activity in solution (Supplementary Fig. 4). As to the method:
as §1, §2

Data set [1] can be described thus: Fibril thermal-stability assay (TEM). The data set is classed as physicochemical. Particulars: 10 mM (LFKFFK in ultra-pure water, IIKIIK in DMSO), 3 days at room temperature, 50 °C for 5 min, then cooled at room temperature 20 min. The procedure: For the fibril thermal-stability assay (Fig. 5), peptides were dissolved to 10 mM (LFKFFK in ultra-pure water and IIKIIK in DMSO) and incubated at room temperature for 3 days. Samples were applied directly onto copper TEM grids and stained as described above. The samples were then incubated at 50 °C in a pre-heated thermoblock for 5 min and immediately applied onto TEM grids. The samples were then allowed to cool down at room temperature for 20 min and applied onto TEM grids. Micrographs were recorded as described above.

Data set [2] is described as follows: Fibril formation by transmission electron microscopy. The data set is classed as physicochemical. Conditions: negative stain TEM. The procedure:
Fibrillated PSMα1 and PSMα4 samples were collected following the ThT fibrillation kinetics assay (as described above) by combining the contents of 2–3 wells from the plate. Solutions were centrifuged at 21,000 × g and the supernatant was discarded. The pellet containing the fibrils was re-suspended in 20 μl of ultra-pure water.
Fibril formation of the short segments, IIKIIK, IIKVIK, LFKFFK and KLFKFFK, was examined for peptides dissolved directly from the powder form. IIKVIK from PSMα1 and IIKIIK from PSMα4 were re-suspended to 20 mM with 75% DMSO in ultra-pure water and incubated for about 1 week at room temperature (Fig. 2b). LFKFFK and KLFKFFK from PSMα3 were re-suspended in ultra-pure water to 10 mM. LFKFFK was incubated for about a month and KLFKFFK was incubated for 14 days at room temperature (Fig. 3b).
Five-microliter samples were applied directly onto copper TEM grids with support films of Formvar/Carbon (Ted Pella), which were charged by glow-discharge (PELCO easiGlow, Ted Pella) immediately before use. Grids were allowed to adhere for 2 min and negatively stained with 5 μl of 2% uranyl acetate solution. Micrographs were recorded using FEI Tecnai G2 T20 S-Twin transmission electron microscope operated at an accelerating voltage of 200 KeV (located at the Department of Materials Science & Engineering at the Technion, Israel), FEI Tecnai G2 T12 TEM operated at an accelerating voltage of 120 kV (located at the Russell Berrie Electron Microscopy Center of Soft Matter at the Technion, Israel). Images were recorded digitally by a Gatan US 1000 CCD camera using the DigitalMicrograph® software.

For a further data set, the system named is Staphylococcus aureus. Description: Disc diffusion assay testing antibacterial activity. The data set is classed as cell-based. Conditions: ATCC 25923, peptide 50 mg ml−1 in ultra-pure water loaded on discs, BHI-agar, incubated over-night. As to the method: as §1, §2
The nature of data set [3]: Thioflavin T fluorescence fibrillation kinetics assay. Particulars: 50 µM peptide, 200 µM ThT; Tris buffer pH 7.5 (PSMα1 and mutant) or ultra-pure water (PSMα4 and mutant); 37 °C; about 100 h; mean of triplicates.
Procedure: Final concentrations for each reaction were 50 µM peptide (PSMα1, PSMα4, or their mutants) and 200 µM ThT. Blank solutions were also prepared for each reaction, containing everything but the peptides. The reaction mixture was carried out in a black 96-well flat-bottom plate (Greiner bio-one) covered with a thermal seal film (EXCEL scientific) and incubated in a plate reader (CLARIOstar BMG LABTECH) at a temperature of 37 °C with 500 rpm shaking for 85 s before each reading cycle, and up to 1000 cycles of 6 min each. Measurements were made in triplicates. Fluorescence was measured by excitation at 438 ± 20 nm and emission at 490 ± 20 nm over a period of about 100 h. All triplicate values were averaged, appropriate blanks were subtracted, and the resulting values were plotted against time. Calculated standard errors of the mean are presented as error bars. The entire experiment was repeated at least three times on different days.
[4] abbreviates: 20 mM in 75% DMSO in ultra-pure water, about 1 week at room temperature.
[5] abbreviates: 10 mM in ultra-pure water, room temperature, LFKFFK about a month, KLFKFFK 14 days.

“IIKIIK [spine segment of PSMα4; acetylated N-terminus and amidated C-terminus, or unmodified termini for crystallography]”: the “antibacterial activity against S. hominis” value with Staphylococcus hominis is reported as “do not elicit antibacterial activity”. Moreover, the “antibacterial activity against M. luteus” value in the data set with Micrococcus luteus was “do not elicit antibacterial activity”. Moreover, the “thermal stability of fibrils” value in data set [1] is reported as “remain stable”. Moreover, the “fibril formation, electron micrographs” value in data set [2] (setting [4]) is reported as “fibrils”.
With “KLFKFFK [one-residue longer PSMα3 segment]”, the “antibacterial activity against S. hominis” value in the data set on Staphylococcus hominis is given as “dose-dependent antibacterial activity”. Also, in the data set with Staphylococcus aureus, the “toxicity to S. aureus” value is on record as “not toxic”. Moreover, the “antibacterial activity against M. luteus” value in the data set with Micrococcus luteus was “dose-dependent antibacterial activity”. Moreover, in data set [2] (setting [5]), the “fibril formation, electron micrographs” value was “straight and twisted crystalline fibrils”.
For “LFKFFK [truncated segment of PSMα3; acetylated N-terminus and amidated C-terminus, or unmodified termini for crystallography]”, the “antibacterial activity against S. hominis” value with Staphylococcus hominis is “dose-dependent antibacterial activity”. For the same substance, the “toxicity to S. aureus” value in the data set with Staphylococcus aureus was “not toxic”. Further, in the data set on Micrococcus luteus, the “antibacterial activity against M. luteus” value is on record as “dose-dependent antibacterial activity”. The “thermal stability of fibrils” value in data set [1] was “dissolve upon heating to 50 °C, and reform upon cooling”. Moreover, the “fibril formation, electron micrographs” value in data set [2] (setting [5]) was “fibrils and nano-crystals”.
For the substance MGIIAGPIPVIKSLIEQFTGK, in data set [3], the “Thioflavin T binding” value is given as “no ThT binding”.
The same measure, in the same setting: the same measure for MAIVGTIPKPIKAIIDIFAK: “no ThT binding”.
“IIKVIK [spine segment of PSMα1; acetylated N-terminus and amidated C-terminus, or unmodified termini for crystallography]”: the “antibacterial activity against S. hominis” value in the data set on Staphylococcus hominis is given as “do not elicit antibacterial activity”. Also, the “antibacterial activity against M. luteus” value with Micrococcus luteus is listed as “do not elicit antibacterial activity”. The “fibril formation, electron micrographs” value in data set [2] (setting [4]) is given as “fibrils”.
